ChEMBL document CHEMBL1129417, “Glucose transport-enhancing and hypoglycemic activity of 2-methyl-2-phenoxy-3-phenylpropanoic acids” (1996)

Experiments:
Format in all cases: functional
3T3-L1 [1] = experiment: Acute effects in vitro by measuring 2-deoxyglucose (2DG) uptake in vehicle treated 3T3-L1 adipocytes at 10 uM dose.
3T3-L1 [2] = experiment: Acute effects in vitro by measuring 2-deoxyglucose (2DG) uptake in vehicle treated 3T3-L1 adipocytes at 30 uM dose.
3T3-L1 [3] = experiment: In vitro by measurements of 2-Deoxyglucose (2DG) uptake in vehicle treated 3T3-L1 adipocytes at 3 uM dose.
Mus musculus [4] = experiment: compound was tested in vivo for hypoglycemic activity expressed as Glucose lowering relative to positive control in 6-8 week old C57BL/6J ob/ob mouse at 0.5 mg/kg
Mus musculus [5] = experiment: In vivo hypoglycemic activity expressed as glucose lowering relative to positive control in 6-8 week old C57BL/6J ob/ob mouse at 10 mg/kg
Mus musculus [6] = experiment: In vivo hypoglycemic activity expressed as glucose lowering relative to positive control in 6-8 week old C57BL/6J ob/ob mouse at 1 mg/kg.
Mus musculus [7] = experiment: In vivo hypoglycemic activity expressed as glucose lowering relative to positive control in 6-8 week old C57BL/6J ob/ob mouse at 5 mg/kg.
Rattus norvegicus [8] = species on record: Rattus norvegicus; experiment: Inhibition of gluconeogenesis in rat; conditions: Rattus norvegicus; read-out: ED50
3T3-L1 [9] = experiment: compound was evaluated for their acute effects in vitro by measuring 2-Deoxyglucose (2DG) uptake in vehicle treated 3T3-L1 adipocytes at concentration of 10 micro M
3T3-L1 [10] = experiment: compound was evaluated for their acute effects in vitro by measuring 2-Deoxyglucose (2DG) uptake in vehicle treated 3T3-L1 adipocytes at concentration of 3 micro M
3T3-L1 [11] = experiment: compound was evaluated for their acute effects in vitro by measuring 2-Deoxyglucose (2DG) uptake in vehicle treated 3T3-L1 adipocytes at concentration of 30 micro M
3T3-L1 [12] = experiment: compound was evaluated for their acute effects in vitro by measuring 2-Deoxyglucose (2DG) uptake in vehicle treated 3T3-L1 adipocytes at 30 uM dose.
3T3-L1 [13] = experiment: compound was evaluated for their acute effects in vitro by measuring 2-Deoxyglucose (2DG) uptake in vehicle treated 3T3-L1 adipocytes at 100 uM dose.
Mus musculus [14] = experiment: compound was tested in vivo for hypoglycemic activity in 6-8 week old C57BL/6J ob/ob mouse at 50 mg/kg
Rattus norvegicus [15] = species on record: Rattus norvegicus; experiment: Compound was tested for inhibition of gluconeogenesis; conditions: Rattus norvegicus; read-out: ED50
3T3-L1 [16] = experiment: compound was evaluated for their acute effects in vitro by measuring 2-Deoxyglucose (2DG) uptake in vehicle treated 3T3-L1 adipocytes at 1 uM dose.
Mus musculus [17] = experiment: compound was tested in vivo for hypoglycemic activity in 6-8 week old C57BL/6J ob/ob mouse at 10 mg/kg
3T3-L1 [18] = experiment: In vitro measurements of 2-Deoxyglucose (2DG) uptake in vehicle treated 3T3-L1 adipocytes at 60 uM dose.
Mus musculus [19] = experiment: compound was tested in vivo for hypoglycemic activity expressed as Glucose lowering relative to positive control in 6-8 week old C57BL/6J ob/ob mouse at 50 mg/kg
L6 = experiment: compound was evaluated for their acute effects in vitro by measuring 2-Deoxyglucose (2DG) uptake in vehicle treated L6 […] at 60 uM dose.
Mus musculus [20] = experiment: compound was tested in vivo for hypoglycemic activity expressed as Glucose lowering relative to positive control in 6-8 week old C57BL/6J ob/ob mouse at 25 mg/kg
3T3-L1 [21] = experiment: In vitro measurements 2-Deoxyglucose (2DG) uptake in vehicle treated 3T3-L1 adipocytes at 100 uM dose.

| SMILES | Basal uptake (3T3-L1 [1]) | Basal uptake (3T3-L1 [2]) | Basal uptake (3T3-L1 [3]) | Hypoglycemic activity (Mus musculus [5]) | Hypoglycemic activity (Mus musculus [6]) | Hypoglycemic activity (Mus musculus [7]) | ED50 (Rattus norvegicus [8]) | further results |
| --- | --- | --- | --- | --- | --- | --- | --- | --- |
| CC(C)c1ccc(OC(C)(Cc2ccc(-c3ccccc3)cc2)C(=O)[O-])cc1.[Na+] (configuration not stated) | 129% | 126% | 122% | 116% | 58% | 93% | 1 mg/kg | Hypoglycemic activity (Mus musculus [4]): 21% |
| CC(C)c1ccc(OC(C)(Cc2cccc(-c3ccccc3)c2)C(=O)[O-])cc1.[Na+] (configuration not stated) | 76% | – | 87% | 83% | 78% | 110% | 0.5 mg/kg | Basal uptake (3T3-L1 [9]): 118%; Basal uptake (3T3-L1 [10]): 109%; Basal uptake (3T3-L1 [11]): 193%; Basal uptake (3T3-L1 [12]): 118%; Hypoglycemic activity (Mus musculus [4]): 46% |
| C1CCC(NC2CCCCC2)CC1.CC(C)c1ccc(OC(Cc2ccccc2C(F)(F)F)C(=O)O)cc1 (configuration not stated) | – | – | – | – | – | – | – | Basal uptake (3T3-L1 [13]): 191%; Hypoglycemic activity (Mus musculus [14]): <0%; ED50 (Rattus norvegicus [15]): > 50 mg/kg |
| CCCc1cccc(CC(C)(Oc2ccc(C(C)C)cc2)C(=O)[O-])c1.[Na+] (configuration not stated) | 128% | 229% | 136% | 123% | 47% | 82% | 1 mg/kg | Basal uptake (3T3-L1 [16]): 123% |
| CC(Cc1ccc(Cl)cc1)(Oc1ccc(C2CCSc3ccccc32)cc1)C(=O)[O-].[Na+] (configuration not stated) | 118% | 157% | 130% | 38% | – | – | 10 mg/kg | Basal uptake (3T3-L1 [16]): 98% |
| CC(C)c1ccc(OC(C)(Cc2ccc3c(c2)CCC3)C(=O)[O-])cc1.[Na+] (configuration not stated) | – | – | – | 126% | 83% | 121% | 0.5 mg/kg | Hypoglycemic activity (Mus musculus [4]): 34% |
| CC(C)c1ccc(CC(C)(Cc2ccc(Cl)cc2)C(=O)O)cc1 (configuration not stated) | – | – | – | – | – | – | – | Hypoglycemic activity (Mus musculus [17]): 20%; ED50 (Rattus norvegicus [15]): > 10 mg/kg |
| CC(C)c1ccc2c(c1)CCC(Cc1ccc(Cl)cc1)(C(=O)O)O2 (configuration not stated) | 82% | 80% | – | – | – | <0% | 5 mg/kg | Basal uptake (3T3-L1 [18]): 114%; Hypoglycemic activity (Mus musculus [19]): 119% |
| C1CCC(NC2CCCCC2)CC1.CC(C)c1ccc(OC(Cc2ccc(Cl)c(Cl)c2)C(=O)O)cc1 (configuration not stated) | – | – | – | – | – | – | – | Basal uptake (3T3-L1 [13]): 225%; Hypoglycemic activity (Mus musculus [14]): 65%; ED50 (Rattus norvegicus [15]): < 50 mg/kg |
| Cc1ccc(OC(Cc2ccc(Cl)cc2)C(=O)O)cc1 (configuration not stated) | 82% | 88% | – | – | – | – | > 25 mg/kg | Basal uptake (3T3-L1 [18]): <100%; Basal uptake (L6): 93%; Hypoglycemic activity (Mus musculus [20]): 33% |
| CC(C)(C)c1ccc(OC(Cc2ccc(Cl)cc2)C(=O)O)cc1 (configuration not stated) | 92% | 87% | – | – | – | – | 25 mg/kg | Basal uptake (3T3-L1 [18]): <100%; Basal uptake (L6): 84%; Hypoglycemic activity (Mus musculus [20]): 53% |
| CC(C)c1ccc(OC(Cc2ccc(Br)cc2)C(=O)O)cc1 (configuration not stated) | – | – | – | <0% | – | – | 10 mg/kg | Basal uptake (3T3-L1 [21]): 203%; Hypoglycemic activity (Mus musculus [19]): 122% |
| CC(C)c1ccc(OC(C)(Cc2ccc(Cl)cc2)C(=O)NS(=O)(=O)C(F)(F)F)cc1 (configuration not stated) | 232% | 273% | 130% | – | – | – | 5 mg/kg | Basal uptake (3T3-L1 [16]): 108%; Basal uptake (3T3-L1 [18]): 79% |
| CC(Cc1ccc2c(c1)CCC2)(Oc1ccc(Cc2ccccc2)cc1)C(=O)[O-].[Na+] (configuration not stated) | – | – | – | 120% | 78% | 102% | 0.5 mg/kg | Hypoglycemic activity (Mus musculus [4]): 50% |
| CC(C)c1ccc(OC(C)(C(=O)NS(=O)(=O)C(F)(F)F)C(C)c2ccc(Cl)cc2)cc1 (configuration not stated) | 248% | 113% | – | 7% | – | – | > 10 mg/kg | Basal uptake (3T3-L1 [16]): 94% |
| COc1ccc(OC(Cc2ccc(Cl)cc2)C(=O)O)cc1 (configuration not stated) | – | – | – | – | – | – | > 25 mg/kg | Basal uptake (L6): 98%; Hypoglycemic activity (Mus musculus [20]): 23% |
